{
  "source": "PubChem BioAssay AID1963829",
  "about": "(Molecular Pharmacology Branch, DTP, NCI, 2024);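 further: spheroids exposed to drugs for seven days before viability read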;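 on viability, T/C: 100% = DMSO vehicle control wells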",
  "system": "935938-334-R-J1-PDC complex spheroid viability",
  "assay": "Anticancer human tumor 935938-334-R-J1-PDC patient-derived small intestine adenocarcinoma cell line growth inhibition [POLQ]",
  "settings": "for IC50: curve of first compound; for viability, T/C: stronger effect = lower value",
  "summary_of_the_method": "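Growth inhibition in 3D: complex spheroids (tumor PDC, HUVEC, MSC) treated with POLQ inhibitor combinations; where Cmax unknown, highest tested concentration 10 microM, except SN-38 at 1 microM.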",
  "key": {"[1]": {"settings": "second compound 0.0316 µM, first compound 0.0316 µM"}, "[2]": {"settings": "second compound 0.0316 µM, first compound 0.1 µM"}, "[3]": {"settings": "second compound 0.0316 µM, first compound 0.316 µM"}, "[4]": {"settings": "second compound 0.0316 µM, first compound 1 µM"}, "[5]": {"settings": "second compound 0.0316 µM, first compound 3.16 µM"}, "[6]": {"settings": "second compound 0.0316 µM, first compound 10 µM"}, "[7]": {"settings": "second compound 0.1 µM, first compound 0.0316 µM"}, "[8]": {"settings": "second compound 0.1 µM, first compound 0.1 µM"}, "[9]": {"settings": "second compound 0.1 µM, first compound 0.316 µM"}, "[10]": {"settings": "second compound 0.1 µM, first compound 1 µM"}, "[11]": {"settings": "second compound 0.1 µM, first compound 3.16 µM"}, "[12]": {"settings": "second compound 0.1 µM, first compound 10 µM"}, "[13]": {"settings": "second compound 0.316 µM, first compound 0.0316 µM"}, "[14]": {"settings": "second compound 0.316 µM, first compound 0.1 µM"}, "[15]": {"settings": "second compound 0.316 µM, first compound 0.316 µM"}, "[16]": {"settings": "second compound 0.316 µM, first compound 1 µM"}, "[17]": {"settings": "second compound 0.316 µM, first compound 3.16 µM"}, "[18]": {"settings": "second compound 0.316 µM, first compound 10 µM"}, "[19]": {"settings": "second compound 1 µM, first compound 0.0316 µM"}, "[20]": {"settings": "second compound 1 µM, first compound 0.1 µM"}, "[21]": {"settings": "second compound 1 µM, first compound 0.316 µM"}, "[22]": {"settings": "second compound 1 µM, first compound 1 µM"}, "[23]": {"settings": "second compound 1 µM, first compound 3.16 µM"}, "[24]": {"settings": "second compound 1 µM, first compound 10 µM"}, "[25]": {"settings": "second compound 3.16 µM, first compound 0.0316 µM"}, "[26]": {"settings": "second compound 3.16 µM, first compound 0.1 µM"}, "[27]": {"settings": "second compound 3.16 µM, first compound 0.316 µM"}, "[28]": {"settings": "second compound 3.16 µM, first compound 1 µM"}, "[29]": {"settings": "second compound 3.16 µM, first compound 3.16 µM"}, "[30]": {"settings": "second compound 3.16 µM, first compound 10 µM"}, "[31]": {"settings": "second compound 10 µM, first compound 0.0316 µM"}, "[32]": {"settings": "second compound 10 µM, first compound 0.1 µM"}, "[33]": {"settings": "second compound 10 µM, first compound 0.316 µM"}, "[34]": {"settings": "second compound 10 µM, first compound 1 µM"}, "[35]": {"settings": "second compound 10 µM, first compound 3.16 µM"}, "[36]": {"settings": "second compound 10 µM, first compound 10 µM"}},
  "data": [
    {"smiles": "COc1ccc([C@@H](O)c2cc(-c3ncnc4cc(N5CCOCC5)ccc34)c(F)cc2Cl)nn1", "note": "+ COC1C(OC(N)=O)C(O)C(Oc2ccc3c(O)c(NC(=O)c4ccc(O)c(CC=C(C)C)c4)c(=O)oc3c2C)OC1(C)C", "values": [
      {"measurement": "IC50", "setting": "second compound 0.0316 µM", "result": 5.47, "unit": "µM"},
      {"measurement": "IC50", "setting": "second compound 0.1 µM", "result": 4.65, "unit": "µM"},
      {"measurement": "IC50", "setting": "second compound 0.316 µM", "result": 4.59, "unit": "µM"},
      {"measurement": "IC50", "setting": "second compound 1 µM", "result": 3.26, "unit": "µM"},
      {"measurement": "IC50", "setting": "second compound 3.16 µM", "result": 6.59, "unit": "µM"},
      {"measurement": "IC50", "setting": "second compound 10 µM", "result": 6.65, "unit": "µM"},
      {"measurement": "viability, T/C", "setting": "[1]", "result": 96.2, "unit": "%"},
      {"measurement": "viability, T/C", "setting": "[2]", "result": 131, "unit": "%"},
      {"measurement": "viability, T/C", "setting": "[3]", "result": 106, "unit": "%"},
      {"measurement": "viability, T/C", "setting": "[4]", "result": 76.4, "unit": "%"},
      {"measurement": "viability, T/C", "setting": "[5]", "result": 67.5, "unit": "%"},
      {"measurement": "viability, T/C", "setting": "[6]", "result": 36.3, "unit": "%"},
      {"measurement": "viability, T/C", "setting": "[7]", "result": 111, "unit": "%"},
      {"measurement": "viability, T/C", "setting": "[8]", "result": 106, "unit": "%"},
      {"measurement": "viability, T/C", "setting": "[9]", "result": 75, "unit": "%"},
      {"measurement": "viability, T/C", "setting": "[10]", "result": 89.2, "unit": "%"},
      {"measurement": "viability, T/C", "setting": "[11]", "result": 64.4, "unit": "%"},
      {"measurement": "viability, T/C", "setting": "[12]", "result": 26.6, "unit": "%"},
      {"measurement": "viability, T/C", "setting": "[13]", "result": 102, "unit": "%"},
      {"measurement": "viability, T/C", "setting": "[14]", "result": 103, "unit": "%"},
      {"measurement": "viability, T/C", "setting": "[15]", "result": 98.2, "unit": "%"},
      {"measurement": "viability, T/C", "setting": "[16]", "result": 59.3, "unit": "%"},
      {"measurement": "viability, T/C", "setting": "[17]", "result": 66.3, "unit": "%"},
      {"measurement": "viability, T/C", "setting": "[18]", "result": 35.1, "unit": "%"},
      {"measurement": "viability, T/C", "setting": "[19]", "result": 113, "unit": "%"},
      {"measurement": "viability, T/C", "setting": "[20]", "result": 125, "unit": "%"},
      {"measurement": "viability, T/C", "setting": "[21]", "result": 111, "unit": "%"},
      {"measurement": "viability, T/C", "setting": "[22]", "result": 85.2, "unit": "%"},
      {"measurement": "viability, T/C", "setting": "[23]", "result": 51.6, "unit": "%"},
      {"measurement": "viability, T/C", "setting": "[24]", "result": 33.9, "unit": "%"},
      {"measurement": "viability, T/C", "setting": "[25]", "result": 115, "unit": "%"},
      {"measurement": "viability, T/C", "setting": "[26]", "result": 97.8, "unit": "%"},
      {"measurement": "viability, T/C", "setting": "[27]", "result": 108, "unit": "%"},
      {"measurement": "viability, T/C", "setting": "[28]", "result": 81.4, "unit": "%"},
      {"measurement": "viability, T/C", "setting": "[29]", "result": 73, "unit": "%"},
      {"measurement": "viability, T/C", "setting": "[30]", "result": 38.1, "unit": "%"},
      {"measurement": "viability, T/C", "setting": "[31]", "result": 95.8, "unit": "%"},
      {"measurement": "viability, T/C", "setting": "[32]", "result": 72.4, "unit": "%"},
      {"measurement": "viability, T/C", "setting": "[33]", "result": 96.4, "unit": "%"},
      {"measurement": "viability, T/C", "setting": "[34]", "result": 70.4, "unit": "%"},
      {"measurement": "viability, T/C", "setting": "[35]", "result": 80, "unit": "%"},
      {"measurement": "viability, T/C", "setting": "[36]", "result": 34.8, "unit": "%"}
    ]},
    {"smiles": "O=C(c1cc(Cc2n[nH]c(=O)c3ccccc23)ccc1F)N1CCN(C(=O)C2CC2)CC1", "note": "+ Nc1ccc(C#CCN(C(=O)Cc2ncc(C(F)(F)F)cc2C(F)(F)F)c2ccc(F)cc2)nn1", "values": [
      {"measurement": "IC50", "setting": "second compound 0.0316 µM", "result": "> 10", "unit": "µM"},
      {"measurement": "IC50", "setting": "second compound 0.1 µM", "result": "> 10", "unit": "µM"},
      {"measurement": "IC50", "setting": "second compound 0.316 µM", "result": "> 10", "unit": "µM"},
      {"measurement": "IC50", "setting": "second compound 1 µM", "result": "> 10", "unit": "µM"},
      {"measurement": "IC50", "setting": "second compound 3.16 µM", "result": "> 10", "unit": "µM"},
      {"measurement": "IC50", "setting": "second compound 10 µM", "result": "> 10", "unit": "µM"},
      {"measurement": "viability, T/C", "setting": "[1]", "result": 87.6, "unit": "%"},
      {"measurement": "viability, T/C", "setting": "[2]", "result": 89.3, "unit": "%"},
      {"measurement": "viability, T/C", "setting": "[3]", "result": 108, "unit": "%"},
      {"measurement": "viability, T/C", "setting": "[4]", "result": 89.5, "unit": "%"},
      {"measurement": "viability, T/C", "setting": "[5]", "result": 75.2, "unit": "%"},
      {"measurement": "viability, T/C", "setting": "[6]", "result": 76.3, "unit": "%"},
      {"measurement": "viability, T/C", "setting": "[7]", "result": 93.7, "unit": "%"},
      {"measurement": "viability, T/C", "setting": "[8]", "result": 81, "unit": "%"},
      {"measurement": "viability, T/C", "setting": "[9]", "result": 105, "unit": "%"},
      {"measurement": "viability, T/C", "setting": "[10]", "result": 73.1, "unit": "%"},
      {"measurement": "viability, T/C", "setting": "[11]", "result": 81, "unit": "%"},
      {"measurement": "viability, T/C", "setting": "[12]", "result": 60, "unit": "%"},
      {"measurement": "viability, T/C", "setting": "[13]", "result": 84.4, "unit": "%"},
      {"measurement": "viability, T/C", "setting": "[14]", "result": 85, "unit": "%"},
      {"measurement": "viability, T/C", "setting": "[15]", "result": 116, "unit": "%"},
      {"measurement": "viability, T/C", "setting": "[16]", "result": 69.3, "unit": "%"},
      {"measurement": "viability, T/C", "setting": "[17]", "result": 74.3, "unit": "%"},
      {"measurement": "viability, T/C", "setting": "[18]", "result": 53.3, "unit": "%"},
      {"measurement": "viability, T/C", "setting": "[19]", "result": 99.3, "unit": "%"},
      {"measurement": "viability, T/C", "setting": "[20]", "result": 99.8, "unit": "%"},
      {"measurement": "viability, T/C", "setting": "[21]", "result": 107, "unit": "%"},
      {"measurement": "viability, T/C", "setting": "[22]", "result": 98.6, "unit": "%"},
      {"measurement": "viability, T/C", "setting": "[23]", "result": 111, "unit": "%"},
      {"measurement": "viability, T/C", "setting": "[24]", "result": 78.7, "unit": "%"},
      {"measurement": "viability, T/C", "setting": "[25]", "result": 92, "unit": "%"},
      {"measurement": "viability, T/C", "setting": "[26]", "result": 93.5, "unit": "%"},
      {"measurement": "viability, T/C", "setting": "[27]", "result": 95, "unit": "%"},
      {"measurement": "viability, T/C", "setting": "[28]", "result": 94.8, "unit": "%"},
      {"measurement": "viability, T/C", "setting": "[29]", "result": 94.9, "unit": "%"},
      {"measurement": "viability, T/C", "setting": "[30]", "result": 69.2, "unit": "%"},
      {"measurement": "viability, T/C", "setting": "[31]", "result": 84.4, "unit": "%"},
      {"measurement": "viability, T/C", "setting": "[32]", "result": 94.9, "unit": "%"},
      {"measurement": "viability, T/C", "setting": "[33]", "result": 102, "unit": "%"},
      {"measurement": "viability, T/C", "setting": "[34]", "result": 98.2, "unit": "%"},
      {"measurement": "viability, T/C", "setting": "[35]", "result": 81, "unit": "%"},
      {"measurement": "viability, T/C", "setting": "[36]", "result": 85.9, "unit": "%"}
    ]}
  ]
}
